Measured values from patent publication US6355799B1, “Substituted benzene compounds, process for their preparation, and herbicidal and defoliant compositions containing them” (ISK Americas Incorporated, priority 1997, dated 2002).

Experiments:
Format in all cases: in vivo
[1] = system: barnyardgrass (Echinochloa crus-galli, ECHCG); test: Pre-emerge test, greenhouse herbicide activity screening; settings: for phytotoxicity rating ECHCG: pre-emerge, 14 days after application, rating scale 0-100; for Pre-emerge Herbicidal Activity ECHCG: phytotoxicity rating 0-100, 14 days after application
Method in brief: (§1)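 Compounds in acetone were track-sprayed at 187 l/ha, 15–1000 g ai/ha, onto sandy loam pots. Pre-emerge seeds were sown one day before spraying, with surface watering afterwards. Post-emerge plants were at the 2–3 leaf stage and sprayed with 0.25% v/v non-ionic surfactant. Injury was rated 0–100 at 14 days.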

[2] = system: lambsquarters (Chenopodium album, CHEAL); test: as above; settings: for phytotoxicity rating CHEAL: pre-emerge, 14 days after application, rating scale 0-100; for Pre-emerge Herbicidal Activity CHEAL: phytotoxicity rating 0-100, 14 days after application
Method in brief: as §1

[3] = system: ivyleaf morningglory (Ipomoea hederacea, IPOHE); test: as above; settings: for phytotoxicity rating IPOHE: pre-emerge, 14 days after application, rating scale 0-100; for Pre-emerge Herbicidal Activity IPOHE: phytotoxicity rating 0-100, 14 days after application
Method in brief: as §1

[4] = system: velvetleaf (Abutilon theophrasti, ABUTH); test: as above; settings: for phytotoxicity rating ABUTH: pre-emerge, 14 days after application, rating scale 0-100; for Pre-emerge Herbicidal Activity ABUTH: phytotoxicity rating 0-100, 14 days after application
Method in brief: as §1

[5] = system: johnsongrass (Sorghum halepense, SORHA); test: as above; settings: for phytotoxicity rating SORHA: pre-emerge, 14 days after application, rating scale 0-100; for Pre-emerge Herbicidal Activity SORHA: phytotoxicity rating 0-100, 14 days after application
Method in brief: as §1

[6] = system: sicklepod (Cassia obtusifolia, CASOB); test: as above; settings: for phytotoxicity rating CASOB: pre-emerge, 14 days after application, rating scale 0-100; for Pre-emerge Herbicidal Activity CASOB: phytotoxicity rating 0-100, 14 days after application
Method in brief: as §1

[7] = system: large crabgrass (Digitaria sanguinalis, DIGSA); test: as above; settings: for phytotoxicity rating DIGSA: pre-emerge, 14 days after application, rating scale 0-100; for Pre-emerge Herbicidal Activity DIGSA: phytotoxicity rating 0-100, 14 days after application
Method in brief: as §1

[8] = system: green foxtail (Setaria viridis, SETVI); test: as above; settings: for phytotoxicity rating SETVI: pre-emerge, 14 days after application, rating scale 0-100; for Pre-emerge Herbicidal Activity SETVI: phytotoxicity rating 0-100, 14 days after application
Method in brief: as §1

[9] = system: redroot pigweed (Amaranthus retroflexus, AMARE); test: Post-emerge test, greenhouse herbicide activity screening; settings: post-emerge, 14 days after application
Method in brief: (§2)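 Rating: 0–100 visual injury, 14 DAA. Application: acetone, 187 l/ha, 15–1000 g ai/ha, flat-fan track sprayer with nozzle 40–45 cm above soil or canopy. Post-emerge runs used 0.25% v/v surfactant on 2–3 leaf plants.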

[10] = system: barnyardgrass (Echinochloa crus-galli, ECHCG); test: as above; settings: post-emerge, 14 days after application, rating scale 0-100
Method in brief: as §2

[11] = system: lambsquarters (Chenopodium album, CHEAL); test: as above; settings: post-emerge, 14 days after application, rating scale 0-100
Method in brief: as §2

[12] = system: ivyleaf morningglory (Ipomoea hederacea, IPOHE); test: as above; settings: post-emerge, 14 days after application, rating scale 0-100
Method in brief: as §2

[13] = system: velvetleaf (Abutilon theophrasti, ABUTH); test: as above; settings: post-emerge, 14 days after application, rating scale 0-100
Method in brief: as §2

[14] = system: johnsongrass (Sorghum halepense, SORHA); test: as above; settings: post-emerge, 14 days after application, rating scale 0-100
Method in brief: as §2

[15] = system: sicklepod (Cassia obtusifolia, CASOB); test: as above; settings: post-emerge, 14 days after application, rating scale 0-100
Method in brief: as §2

[16] = system: large crabgrass (Digitaria sanguinalis, DIGSA); test: as above; settings: post-emerge, 14 days after application, rating scale 0-100
Method in brief: as §2

[17] = system: green foxtail (Setaria viridis, SETVI); test: as above; settings: post-emerge, 14 days after application, rating scale 0-100
Method in brief: as §2

[18] = system: upland rice (Oryza sp., var. Tebonnet, RICE); test: Post-emerge test, crop safety; settings: post-emerge, 14 days after application, rating scale 0-100
Method in brief: as §1

[19] = system: field corn (Zea mays L., var. Dekalb 535, CORN); test: Post-emerge test, crop safety; settings: post-emerge, 14 days after application, rating scale 0-100
Method in brief: as §1

[20] = system: redroot pigweed (Amaranthus retroflexus, AMARE); test: Pre-emerge test, greenhouse herbicide activity screening; settings: for phytotoxicity rating AMARE: pre-emerge, 14 days after application, rating scale 0-100; for Pre-emerge Herbicidal Activity AMARE: phytotoxicity rating 0-100, 14 days after application
Method in brief: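 Herbicidal damage is scored 0 (none) to 100 (complete plant death) two weeks after a simulated field spray. Rates span 15–1000 g ai/ha, delivered in acetone at 187 l/ha. For post-emergence treatments, plants have 2–3 leaves and the spray carries 0.25% v/v non-ionic surfactant.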

[21] = system: upland rice (Oryza sp., var. Tebonnet, RICE); test: Pre-emerge test, crop safety; settings: for phytotoxicity rating RICE: pre-emerge, 14 days after application, rating scale 0-100; for Pre-emerge Herbicidal Activity RICE: crop damage rating 0-100, 14 days after application
Method in brief: as §2

[22] = system: field corn (Zea mays L., var. Dekalb 535, CORN); test: Pre-emerge test, crop safety; settings: for phytotoxicity rating CORN: pre-emerge, 14 days after application, rating scale 0-100; for Pre-emerge Herbicidal Activity CORN: crop damage rating 0-100, 14 days after application
Method in brief: as §2

`COc1c(Cl)cc(F)c(-n2c(=O)cc(C(F)(F)F)n(C)c2=O)c1NN=CC1CC1` [Compound 15-11] was tested, and the “phytotoxicity rating ECHCG” value ([1]; 63 g ai/ha) was 100, the “phytotoxicity rating ECHCG” value ([1]; 250 g ai/ha) was 100 and the “phytotoxicity rating CHEAL” value ([2]; 63 g ai/ha) was 100. For the same molecule, the “phytotoxicity rating CHEAL” value ([2]; 250 g ai/ha) was 100, the “phytotoxicity rating IPOHE” value ([3]; 63 g ai/ha) was 100 and the “phytotoxicity rating IPOHE” value ([3]; 250 g ai/ha) was 100. For the same molecule, the “phytotoxicity rating ABUTH” value ([4]; 63 g ai/ha) was 100, the “phytotoxicity rating ABUTH” value ([4]; 250 g ai/ha) was 100 and the “phytotoxicity rating SORHA” value ([5]; 63 g ai/ha) was 100. For the same molecule, the “phytotoxicity rating SORHA” value ([5]; 250 g ai/ha) was 100, the “phytotoxicity rating CASOB” value ([6]; 63 g ai/ha) was 100 and the “phytotoxicity rating CASOB” value ([6]; 250 g ai/ha) was 100. The “phytotoxicity rating DIGSA” value ([7]; 63 g ai/ha) was 100, the “phytotoxicity rating DIGSA” value ([7]; 250 g ai/ha) was 100 and the “phytotoxicity rating SETVI” value ([8]; 63 g ai/ha) was 100. The “phytotoxicity rating SETVI” value ([8]; 250 g ai/ha) was 100, the “Post-emerge Herbicidal Activity AMARE (phytotoxicity rating)” value ([9]; 63 g ai/ha, rating scale 0-100 (0 no damage, 100 complete death)) was 95 and the “Post-emerge Herbicidal Activity AMARE (phytotoxicity rating)” value ([9]; 250 g ai/ha, rating scale 0-100) was 100. The “Post-emerge Herbicidal Activity ECHCG (phytotoxicity rating)” value ([10]; 63 g ai/ha) was 50, the “Post-emerge Herbicidal Activity ECHCG (phytotoxicity rating)” value ([10]; 250 g ai/ha) was 99 and the “Post-emerge Herbicidal Activity CHEAL (phytotoxicity rating)” value ([11]; 63 g ai/ha) was 100. The “Post-emerge Herbicidal Activity CHEAL (phytotoxicity rating)” value ([11]; 250 g ai/ha) was 100, the “Post-emerge Herbicidal Activity IPOHE (phytotoxicity rating)” value ([12]; 63 g ai/ha) was 100 and the “Post-emerge Herbicidal Activity IPOHE (phytotoxicity rating)” value ([12]; 250 g ai/ha) was 100. For the same molecule, the “Post-emerge Herbicidal Activity ABUTH (phytotoxicity rating)” value ([13]; 63 g ai/ha) was 100, the “Post-emerge Herbicidal Activity ABUTH (phytotoxicity rating)” value ([13]; 250 g ai/ha) was 100 and the “Post-emerge Herbicidal Activity SORHA (phytotoxicity rating)” value ([14]; 63 g ai/ha) was 50. The “Post-emerge Herbicidal Activity SORHA (phytotoxicity rating)” value ([14]; 250 g ai/ha) was 99, the “Post-emerge Herbicidal Activity CASOB (phytotoxicity rating)” value ([15]; 63 g ai/ha) was 90 and the “Post-emerge Herbicidal Activity CASOB (phytotoxicity rating)” value ([15]; 250 g ai/ha) was 100. The “Post-emerge Herbicidal Activity DIGSA (phytotoxicity rating)” value ([16]; 63 g ai/ha) was 50, the “Post-emerge Herbicidal Activity DIGSA (phytotoxicity rating)” value ([16]; 250 g ai/ha) was 95 and the “Post-emerge Herbicidal Activity SETVI (phytotoxicity rating)” value ([17]; 63 g ai/ha) was 40. For the same molecule, the “Post-emerge Herbicidal Activity SETVI (phytotoxicity rating)” value ([17]; 250 g ai/ha) was 80, the “Post-emerge Herbicidal Activity RICE (crop damage rating)” value ([18]; 63 g ai/ha) was 65 and the “Post-emerge Herbicidal Activity RICE (crop damage rating)” value ([18]; 250 g ai/ha) was 99. For the same molecule, the “Post-emerge Herbicidal Activity CORN (crop damage rating)” value ([19]; 63 g ai/ha) was 45, the “Post-emerge Herbicidal Activity CORN (crop damage rating)” value ([19]; 250 g ai/ha) was 85 and the “phytotoxicity rating AMARE” value ([20]; 63 g ai/ha) was 100. The “phytotoxicity rating AMARE” value ([20]; 250 g ai/ha) was 100, the “phytotoxicity rating RICE” value ([21]; 63 g ai/ha) was 100 and the “phytotoxicity rating RICE” value ([21]; 250 g ai/ha) was 100. The “phytotoxicity rating CORN” value ([22]; 63 g ai/ha) was 100 and the “phytotoxicity rating CORN” value ([22]; 250 g ai/ha) was 100.

In the case of `CCOC(=O)COc1c(Cl)cc(F)c(-n2c(=O)cc(C(F)(F)F)n(C)c2=O)c1NC(=O)c1ccc2ccccc2c1` [2-189], the “Pre-emerge Herbicidal Activity ECHCG” value ([1]; 40.5 g ai/ha) is reported as 0, the “Pre-emerge Herbicidal Activity ECHCG” value ([1]; 162 g ai/ha) is reported as 0 and the “Pre-emerge Herbicidal Activity CHEAL” value ([2]; 40.5 g ai/ha) is reported as 100. For the same molecule, the “Pre-emerge Herbicidal Activity CHEAL” value ([2]; 162 g ai/ha) was 100, the “Pre-emerge Herbicidal Activity IPOHE” value ([3]; 40.5 g ai/ha) was 0 and the “Pre-emerge Herbicidal Activity IPOHE” value ([3]; 162 g ai/ha) was 20. For the same molecule, the “Pre-emerge Herbicidal Activity ABUTH” value ([4]; 40.5 g ai/ha) was 70, the “Pre-emerge Herbicidal Activity ABUTH” value ([4]; 162 g ai/ha) was 100 and the “Pre-emerge Herbicidal Activity SORHA” value ([5]; 40.5 g ai/ha) was 0. The “Pre-emerge Herbicidal Activity SORHA” value ([5]; 162 g ai/ha) was 0, the “Pre-emerge Herbicidal Activity CASOB” value ([6]; 40.5 g ai/ha) was 0 and the “Pre-emerge Herbicidal Activity CASOB” value ([6]; 162 g ai/ha) was 10. For the same molecule, the “Pre-emerge Herbicidal Activity DIGSA” value ([7]; 40.5 g ai/ha) was 0, the “Pre-emerge Herbicidal Activity DIGSA” value ([7]; 162 g ai/ha) was 0 and the “Pre-emerge Herbicidal Activity SETVI” value ([8]; 40.5 g ai/ha) was 0. For the same molecule, the “Pre-emerge Herbicidal Activity SETVI” value ([8]; 162 g ai/ha) was 0, the AMARE phytotoxicity rating ([9]; 40.5 g ai/ha, rating scale 0-100) was 100 and the AMARE phytotoxicity rating ([9]; 162 g ai/ha, rating scale 0-100) was 100. It also gave an ECHCG phytotoxicity rating ([10]; 40.5 g ai/ha) of 0, an ECHCG phytotoxicity rating ([10]; 162 g ai/ha) of 10 and a CHEAL phytotoxicity rating ([11]; 40.5 g ai/ha) of 100. For the same molecule, the CHEAL phytotoxicity rating ([11]; 162 g ai/ha) was 100, the IPOHE phytotoxicity rating ([12]; 40.5 g ai/ha) was 60 and the IPOHE phytotoxicity rating ([12]; 162 g ai/ha) was 100. For the same molecule, the ABUTH phytotoxicity rating ([13]; 40.5 g ai/ha) was 85, the ABUTH phytotoxicity rating ([13]; 162 g ai/ha) was 100 and the SORHA phytotoxicity rating ([14]; 40.5 g ai/ha) was 0. The SORHA phytotoxicity rating ([14]; 162 g ai/ha) was 0, the CASOB phytotoxicity rating ([15]; 40.5 g ai/ha) was 40 and the CASOB phytotoxicity rating ([15]; 162 g ai/ha) was 60. It also gave a DIGSA phytotoxicity rating ([16]; 40.5 g ai/ha) of 0, a DIGSA phytotoxicity rating ([16]; 162 g ai/ha) of 0 and an SETVI phytotoxicity rating ([17]; 40.5 g ai/ha) of 0. The SETVI phytotoxicity rating ([17]; 162 g ai/ha) was 0, the “RICE phytotoxicity rating (crop damage)” value ([18]; 40.5 g ai/ha) was 0 and the “RICE phytotoxicity rating (crop damage)” value ([18]; 162 g ai/ha) was 5. The “CORN phytotoxicity rating (crop damage)” value ([19]; 40.5 g ai/ha) was 0, the “CORN phytotoxicity rating (crop damage)” value ([19]; 162 g ai/ha) was 5 and the “Pre-emerge Herbicidal Activity AMARE” value ([20]; 40.5 g ai/ha) was 95. The “Pre-emerge Herbicidal Activity AMARE” value ([20]; 162 g ai/ha) was 90, the “Pre-emerge Herbicidal Activity RICE” value ([21]; 40.5 g ai/ha) was 0 and the “Pre-emerge Herbicidal Activity RICE” value ([21]; 162 g ai/ha) was 0. For the same molecule, the “Pre-emerge Herbicidal Activity CORN” value ([22]; 40.5 g ai/ha) was 0 and the “Pre-emerge Herbicidal Activity CORN” value ([22]; 162 g ai/ha) was 0.
